Measured values as given in patent US9090565B2, “1-pyridazinyl-hydroxyimino-3-phenyl-propanes” (Hoffmann-La Roche Inc., priority 2011, dated 2015).

biological target: T1, human GPBAR1 receptor (Homo sapiens, UniProt Q8TDU6); experiment: functional cAMP assay in CHO-dhfr(minus) cells expressing human GPBAR1 receptors; assay type: cell-based; conditions: TR-FRET, 30 min at 30° C.
T1 construct: expressed in transfected cells
T1 sequence (Q8TDU6 1-330): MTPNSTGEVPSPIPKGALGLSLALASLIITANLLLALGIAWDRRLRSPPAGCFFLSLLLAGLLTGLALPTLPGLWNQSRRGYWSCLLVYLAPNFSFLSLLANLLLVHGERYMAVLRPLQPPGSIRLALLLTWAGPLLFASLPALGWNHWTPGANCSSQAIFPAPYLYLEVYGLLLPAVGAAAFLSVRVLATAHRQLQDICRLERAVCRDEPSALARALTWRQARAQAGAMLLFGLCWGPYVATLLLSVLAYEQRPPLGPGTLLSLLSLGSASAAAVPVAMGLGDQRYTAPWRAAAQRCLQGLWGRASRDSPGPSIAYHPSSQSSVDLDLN
From the text: The cDNA of the human GPBAR1 receptor (Genbank: NM_170699 with the exception of a silent C:G mutation at position 339 from the start codon) was amplified by polymerase chain reaction (PCR) from human cDNA and inserted into pCineo (Promega) by standard methods (Current Protocols in Molecular Biology, Wiley Press, ed. Ausubel et al.). The final clone was verified by DNA sequence analysis. The plasmid was transfected into CHO cells deficient in dihydrofolate reductase activity (CHO-dhfr-) using Lipofectamine plus (Invitrogen). Clones were isolated in limited dilution conditions and identified by activities in the cAMP assay using lithocholic acid as agonist. A clonal cell line displaying the greatest activity in cAMP increases was selected and identified as giving consistently good responses for up to at least 20 passages.
CHO-dhfr(minus) cells expressing human GPBAR1 receptors are seeded 17-24 hours prior to the experiment 50,000 cells per well in a black 96 well plate with flat clear bottom (Corning Costar #3904) in DMEM (Invitrogen No. 31331), 1×HT supplement, with 10% fetal calf serum and incubated at 5% CO2 and 37° C. in a humidified incubator. The growth medium was exchanged with Krebs Ringer Bicarbonate buffer with 1 mM IBMX and incubated at 30° C. for 30 min. Compounds were added to a final assay volume of 100 μl and incubated for 30 min at 30° C. The assay was stopped by the addition of 50 μl lysis reagent (Tris, NaCl, 1.5% Triton X100, 2.5% NP40, 10% NaN3) and 50 μl detection solutions (20 μM mAb Alexa700-cAMP 1:1, and 48 μM Ruthenium-2-AHA-cAMP) and shaked for 2 h at room temperature. The time-resolved energy transfer is measured by a TRF reader (Evotec Technologies GrmbH, Hamburg Germany), equipped with a ND:YAG laser as excitation source. The plate is measured twice with the excitation at 355 nm and at the emission with a delay of 100 ns and a gate of 100 ns, total exposure time 10 s at 730 (bandwidth 30 nm) or 645 nm (bandwidth 75 nm), respectively. The measured signal at 730 nm has to be corrected for the ruthenium background, the direct excitation of Alexa and the buffer control. The FRET signal is calculated as follows: FRET=T730−Alexa730-P(T645−B645) with P=Ru730−B730/Ru645−B645, where T730 is the test well measured at […], T645 is the test well measured at 645 nm, B730 and B645 are the buffer controls at 730 nm and 645 nm, respectively, cAMP content is determined from the function of a standard curve spanning from 10 μM to 0.13 nM cAMP.
EC50 values were determined using Activity Base analysis (ID Business Solution, Limited). The EC50 values for a wide range of bile acids generated from this assay were in agreement with the values published in the scientific literature. Specificity for GPBAR1 was tested in non-transfected CHO cells in the same assay as above.

SMILES	EC50 [nM]
COc1nnccc1/C(C[C@H](c1ccc(C2CCN(S(C)(=O)=O)CC2)cc1)c1ccccc1C)=N/O [Example 11, (R,E)-1-(3-Methoxypyridazin-4-yl)-3-(4-(1-(methylsulfonyl)piperidin-4-yl)phenyl)-3-o-tolylpropan-1-one oxime]	52
Cc1ccccc1[C@H](C/C(=N\O)c1ccnn(C)c1=O)c1ccc(C2CCN(S(C)(=O)=O)CC2)cc1 [Example 13, (R,E)-4-(1-(Hydroxyimino)-3-(4-(1-(methylsulfonyl)piperidin-4-yl)phenyl)-3-o-tolylpropyl)-2-methylpyridazin-3(2H)-one]	179
Cc1ccccc1[C@H](C/C(=N\O)c1ccc(=O)n(C)n1)c1ccc(S(C)(=O)=O)cc1 [Example 10, (R,E)-6-(1-(Hydroxyimino)-3-(4-(methylsulfonyl)phenyl)-3-o-tolylpropyl)-2-methylpyridazin-3(2H)-one]	60
Cc1ccccc1C(C/C(=N\O)c1ccnnc1)c1ccc(-c2ccc(C(=O)O)cc2)cc1 (centres unmarked) [Example 2, (E)-4′-(3-(hydroxyimino)-3-(pyridazin-4-yl)-1-o-tolylpropyl)biphenyl-4-carboxylic acid]	1560
Cc1ccccc1[C@H](C/C(=N\O)c1ccc(=O)n(C)n1)c1ccc(-c2ccc(C(=O)O)cc2)cc1 [Example 9, (R,E)-4′-(3-(Hydroxyimino)-3-(1-methyl-6-oxo-1,6-dihydropyridazin-3-yl)-1-o-tolylpropyl)biphenyl-4-carboxylic acid]	61
Cc1ccccc1[C@@H](C/C(=N\O)c1ccnn(C)c1=O)c1ccc(Br)cc1 [Example 6, (S,E)-4-(3-(4-Bromophenyl)-1-(hydroxyimino)-3-o-tolylpropyl)-2-methylpyridazin-3(2H)-one]	90
COc1nnccc1/C(C[C@@H](c1ccc(Br)cc1)c1ccccc1C)=N/O [Example 4, (S,E)-3-(4-bromophenyl)-1-(3-methoxypyridazin-4-yl)-3-o-tolylpropan-1-one oxime]	31
Cc1ccccc1[C@@H](C/C(=N\O)c1ccn[nH]c1=O)c1ccc(Br)cc1 [Example 5, (S,E)-4-(3-(4-Bromophenyl)-1-(hydroxyimino)-3-o-tolylpropyl)pyridazin-3(2H)-one]	148
Cc1ccccc1[C@H](C/C(=N\O)c1ccc(=O)n(C)n1)c1ccc(Br)cc1 [Example 7, (R,E)-6-(3-(4-Bromophenyl)-1-(hydroxyimino)-3-o-tolylpropyl)-2-methylpyridazin-3(2H)-one]	6
Cc1ccccc1[C@H](C/C(=N\O)c1ccc(=O)n(C)n1)c1ccc(C2CCN(S(C)(=O)=O)CC2)cc1 [Example 8, (R,E)-6-(1-(Hydroxyimino)-3-(4-(1-(methylsulfonyl)piperidin-4-yl)phenyl)-3-o-tolylpropyl)-2-methylpyridazin-3(2H)-one]	33
Cc1ccccc1[C@@H](C/C(=N\O)c1ccc(=O)[nH]n1)c1ccc(Br)cc1 [Example 14, (S,E)-6-(3-(4-Bromophenyl)-1-(hydroxyimino)-3-o-tolylpropyl)pyridazin-3(2H)-one]	648
Cc1ccccc1[C@H](C/C(=N\O)c1ccnnc1)c1ccc(Br)cc1 [Example 1, (R,E)-3-(4-Bromophenyl)-1-(pyridazin-4-yl)-3-o-tolylpropan-1-one oxime]	80
Cc1ccccc1C(C/C(=N\O)c1ccnnc1)c1ccc(C2CCN(S(C)(=O)=O)CC2)cc1 (centres unmarked) [Example 3, (E)-3-(4-(1-(methylsulfonyl)piperidin-4-yl)phenyl)-1-(pyridazin-4-yl)-3-o-tolylpropan-1-one oxime]	956
Cc1ccccc1[C@H](C/C(=N\O)c1ccn[nH]c1=O)c1ccc(C2CCN(S(C)(=O)=O)CC2)cc1 [Example 12, (R,E)-4-(1-(Hydroxyimino)-3-(4-(1-(methylsulfonyl)piperidin-4-yl)phenyl)-3-o-tolylpropyl)pyridazin-3(2H)-one]	527
